# Where “and” joins values, the source holds several entries; their conditions need not be identical. Identical values can stand only once. Like-named read-outs stand apart in the source and are kept apart here. Positions of bridges follow the written chain, without caps; N, C: chain ends. Residues, ends and D or L forms follow the SMILES beside them. *: point of attachment. Acm = CC(=O)NC*
# Legend:
# Assay type in all cases: cell-based, Candida albicans
# C. albicans [1] = conditions: 10 min exposure, mean ± SD, untreated control 1.8 ± 1.2%
# Procedure: (§1) To analyze changes in cell size and to assess kinetics of cell death of C. albicans upon antifungal treatment flow cytometry was applied. For both experiments, 10^4 cells mL^-1 was incubated in 0.05× PDB with the desired AMP concentration for different time points. The incubation was performed in 1.5 mL reaction tubes at 30°C under continuous shaking at 800 rpm in a Thermomixer Comfort (Eppendorf). After incubation, the cells were centrifuged at 4°C with 3,000 ×g for 3 min. For cell size determination, the supernatant was removed and the cells were resuspended and fixed in PBS containing 3.7% (v/v) formaldehyde before changes in cell size were measured by plotting SSC against FSC. C. albicans that were incubated at 95°C for 120 min served as controls. Microscopic control-images were taken with a fluorescence microscope (Axioplan, Zeiss), equipped with a camera (Axiocam 503 mono, Zeiss) and excitation/emission filters (365/420 nm for blue fluorescence and 546/590 or 565/620 nm for red fluorescence, Zeiss). Image acquisition was performed with ZEN 2 microscope software (Zeiss, blue edition) and the cell area was measured with ImageJ 1.52d software ([Schindelin et al., 2012]).
# For dead-cell staining, prior to fixation, the cells were incubated in the dark for 30 min at 4°C with 100 μL PBS containing 0.1 μL LIVE/DEAD^TM Fixable Far Red Dead Cell Stain (Thermo Fisher Scientific). The cells were then washed once in PBS and fixed in PBS containing 3.7% formaldehyde. Ethanol-inactivated dead C. albicans served as a positive staining control. The samples were then analyzed by FACS (FACSVerse Flow Cytometer, BD Biosciences), equipped with BD FACSuite software (v1.0.6.5230, BD Biosciences). Dead cells were detected at Excitation/Emission wavelength of 650/665 nm. Stained, live, and dead Candida cells were used as controls to discriminate populations and to set the gates.
# To elucidate the AMPs candidacidal activities at an early stage and to compare their time and dose-dependent cell killing in more detail, fluorescence activated cell sorting (FACS) analysis with dead-cell staining was applied. To this end, C. albicans was exposed to 1× and 2× MIC of the respective AMPs for 10 min, stained with the dead-cell marker, and fixed with formaldehyde. With FACS analyses, 1.8 ± 1.2% dead cells were detected in the untreated control (Figure 3).
# C. albicans [2] = conditions: 2 h
# Procedure: Fungistatic or fungicidal activities were determined by incubating C. albicans (10^4 cells mL^-1) in 0.05× PDB with proteins and peptides at 1× MIC and 2× MIC of at 30°C under continuous shaking (800 rpm) in a Thermomixer Comfort (Eppendorf). At defined time points, aliquots were taken and appropriate dilutions were plated on YPD agar in duplicates to promote growth of viable cells. Agar plates were incubated at 37°C for 24 h to count colony forming units (cfu) ([Huber et al., 2018]).
# The determination of the MIC concentration is a well-established, reliable method to elucidate the growth reducing effect of an antifungal compound. […] To gain deeper insight into the antifungal mechanism of the generated protein and peptide variants, we compared them first for their fungicidal potential. In liquid culture C. albicans was exposed to 1× MIC and 2× MIC concentrations of each protein and peptide. After certain time points aliquots were taken and appropriate dilutions were spread on agar plates to allow colony formation of viable cells. The cfu were counted and compared to the untreated control, which was set to be 100%. […] The candidacidal effects were aggravated with higher protein concentrations.
# C. albicans [3] = conditions: for MIC: 24 h; for antifungal activity of scrambled peptide analog compared with original peptide: compared with Pγ, Pγ^var and Pγ^opt, respectively, data not shown
# Procedure: Fungal strains used in this study are listed in Supplementary Table S1 and composition of growth media is given in Supplementary Table S2. All P. chrysogenum shaking cultures were inoculated with 2 × 10^8 conidia, in 200 mL defined minimal medium (PcMM) for protein expression or complete medium (CM) before transformation, and grown at 25°C as described ([Sonderegger et al., 2016]). For conidial suspension generation from surface cultures, P. chrysogenum was grown on PcMM agar at 25°C. C. albicans was used as PAF-sensitive model organism and was cultivated on yeast extract peptone dextrose (YPD) agar at 37°C. For growth inhibition and susceptibility assays, C. albicans was grown in 20-fold diluted potato dextrose broth (PDB, Sigma-Aldrich) at 30°C, pH 5.5 ([Huber et al., 2018]).
# The MIC of all protein and peptide variants was determined on C. albicans with broth microdilution assays in 96-well microtiter plates (Nunclon Delta, Thermo Fisher Scientific). From a fresh C. albicans overnight culture on YPD agar, cells were harvested with an inoculation loop and suspended in 0.05× PDB (Sigma-Aldrich) ([Arendrup et al., 2016]). The cell number was determined with a counting chamber (Bürker) and the cell number was adjusted to 10^4 mL^-1. In each well, 10^3 cells were incubated with increasing concentrations of antifungal proteins or peptides in a final volume of 200 μL 0.05× PDB. The plates were incubated for 24 h at 30°C before the growth was determined by measuring the optical density (OD620nm) with a multi-mode microplate reader (FLUOstar Omega, BMG Labtech). The MIC was defined as the protein concentration that inhibited growth by ≥90% compared to the untreated control, which was referred as 100% growth.
# C. albicans biofilms = test: Anti-biofilm activity, FDA fluorescence; conditions: AMP 0–40 μM for 24 h at 30°C; for concentration inhibiting cell metabolism in biofilm (FDA fluorescence): 24-h-old biofilms; for concentration with anti-biofilm (inhibitory) activity, extinction of FDA fluorescence: 1 h old (young) biofilms
# Procedure: The antifungal activity against C. albicans biofilms was determined in 96-well microtiter plates (Nunclon Delta, Thermo Fisher Scientific). Cells (10^5) in 100 μL 0.05× PDB were distributed per well and plates were incubated at 37°C for up to 24 h to allow biofilm formation. After cell adherence, the microtiter plates were washed once with 0.05× PDB and the test substances were added in increasing concentrations in 100 μL 0.05× PDB per well. H2O2 served as a control for cell killing. The plates were further incubated at 30°C for 24 h. The wells were washed once with 0.05× PDB and 100 μL of FDA solution (40 μg mL^-1 in 0.05× PDB) was added to the wells. Wells containing only FDA solution (40 μg mL^-1 in 0.05× PDB) were used as blank background control. The plates were incubated for 1 h at 37°C in the dark before the fluorescence signal intensity was measured in a multi-mode microplate reader (FLUOstar Omega, BMG Labtech) with excitation and emission wavelengths of 485 and 520 nm. All experiments were prepared at least in duplicates and repeated at least twice.
# Next, we analyzed the potential of the AMPs to inhibit C. albicans biofilm formation. Low susceptibility of biofilms to antifungal agents is often a limiting factor in anti-Candida treatment. To this end, C. albicans cells were distributed in 96-well microtiter plates, allowed to settle down, and to develop biofilms for 1 and 24 h. Then, planktonic cells were washed off and AMPs were added to the biofilms for another 24 h in a concentration range of 0–40 μM. The biofilms were then quantified by adding FDA to the wells. Metabolically active cells convert non-fluorescent FDA into highly fluorescent fluorescein by intracellular enzymatic activity ([Peeters et al., 2008]). The resulting fluorescence signal intensity from AMP-treated biofilms was measured and compared to untreated conditions. […] Twenty-four-hour-old biofilms, however, were resistant against PAF, PAF^var, and PAF^opt in the investigated concentration range (data not shown).
# C. albicans [4] = test: Cell size reduction (FSC) by flow cytometry; conditions: 1× MIC and 2× MIC, 10 and 30 min
# Procedure: as §1
# Cell shrinkage of C. albicans is a sign for cell death when exposed to AMPs ([Lee et al., 2017]). We therefore analyzed the changes in size of AMP-treated C. albicans cells by recording the FSC with flow cytometry. To this end, C. albicans cells were analyzed after 10 and 30 min of exposure to 1× MIC and 2× MIC of AMPs (Figure 5). Heat-killed and untreated C. albicans cells served as positive and negative controls, respectively (Supplementary Figure S8). […] Pγ^var and Pγ^opt caused a very prominent decrease in the FSC value compared to the untreated cell population when applied at 2× MIC. Pγ^var and Pγ^opt reduced the average cell size after a 10-min treatment by 28 ± 13 (P = 0.022) and 18 ± 10% (P = 0.041), respectively, and after 30 min the cell size was reduced by 48 ± 8 (P < 0.001) and 37 ± 12% (P = 0.007), respectively.
# [5] = 1× MIC, 0.05× PDB, 30°C, mean ± SD
molecule,measurement,setting,value
Penicillium chrysogenum antifungal protein [PAF],"dead cells (cells killed), FACS dead-cell staining",C. albicans [1]; 1× MIC,did not cause significant increase
same,"dead cells (cells killed), FACS dead-cell staining",C. albicans [1]; 2× MIC,did not cause significant increase
same,Candida cells killed (cfu vs untreated control),C. albicans [2]; [5],no detectable killing activity
same,Candida cells killed (cfu vs untreated control),"C. albicans [2]; 2× MIC, 0.05× PDB, 30°C, mean ± SD",26 ± 6%
same,MIC,"C. albicans [3]; 10^3 cells per well in 200 μL 0.05× PDB, 30°C, OD620nm, MIC = concentration inhibiting growth by ≥90% vs untreated control",5 µM and 5.0 µM
same,concentration inhibiting cell metabolism in biofilm (FDA fluorescence),C. albicans biofilms,resistant
same,"concentration with anti-biofilm (inhibitory) activity, extinction of FDA fluorescence",C. albicans biofilms,only moderately reduced the metabolic activity
same,cell shrinkage,C. albicans [4],did not result in cell shrinkage
"CTNKYSCKKGETKK [Pγ_scr, scrambled peptide analog of Pγ]",antifungal activity of scrambled peptide analog compared with original peptide,C. albicans [3],same antifungal activity
CC(=O)N[C@@H](CCCCN)C(=O)N[C@@H](Cc1ccc(O)cc1)C(=O)N[C@H](C(=O)NCC(=O)N[C@@H](CCCCN)C(=O)N[C@@H](CS)C(=O)N[C@H](C(=O)N[C@@H](CCCCN)C(=O)N[C@@H](CO)C(=O)N[C@@H](CCCCN)C(=O)N[C@@H](CC(N)=O)C(=O)N[C@@H](CCC(=O)O)C(=O)N[C@@H](CS)C(=O)N[C@@H](CCCCN)C(N)=O)[C@@H](C)O)[C@@H](C)O [Pγ] (Ac-KYTGKCTKSKNECK-NH2),"dead cells (cells killed), FACS dead-cell staining",C. albicans [1]; 1× MIC,No significant cell-killing
same,"dead cells (cells killed), FACS dead-cell staining",C. albicans [1]; 2× MIC,No significant cell-killing
same,Candida cells killed (cfu vs untreated control),C. albicans [2]; [5],no killing effects
same,Candida cells killed (cfu vs untreated control),C. albicans [2]; 2,31 ± 23%
same,MIC,C. albicans [3],10.0 µM
same,concentration inhibiting cell metabolism in biofilm (FDA fluorescence),C. albicans biofilms,no impact
same,"concentration with anti-biofilm (inhibitory) activity, extinction of FDA fluorescence",C. albicans biofilms,40 µM
same,cell shrinkage,C. albicans [4],did not result in cell shrinkage
CC(=O)NCSC[C@H](NC(=O)[C@H](CCC(=O)O)NC(=O)[C@H](CC(N)=O)NC(=O)[C@H](CCCCN)NC(=O)[C@H](CO)NC(=O)[C@H](CCCCN)NC(=O)[C@@H](NC(=O)[C@H](CSCNC(C)=O)NC(=O)[C@H](CCCCN)NC(=O)CNC(=O)[C@@H](NC(=O)[C@H](Cc1ccc(O)cc1)NC(=O)[C@H](CCCCN)NC(C)=O)[C@@H](C)O)[C@@H](C)O)C(=O)N[C@@H](CCCCN)C(N)=O [Pγ_prot] (Ac-KYTGKC(Acm)TKSKNEC(Acm)K-NH2),MIC,C. albicans [3],40 µM
CC(=O)N[C@@H](CCCCN)C(=O)N[C@@H](Cc1ccc(O)cc1)C(=O)N[C@H](C(=O)NCC(=O)N[C@@H](CCCCN)C(=O)N[C@H]1CSSC[C@@H](C(=O)N[C@@H](CCCCN)C(N)=O)NC(=O)[C@H](CCC(=O)O)NC(=O)[C@H](CC(N)=O)NC(=O)[C@H](CCCCN)NC(=O)[C@H](CO)NC(=O)[C@H](CCCCN)NC(=O)[C@H]([C@@H](C)O)NC1=O)[C@@H](C)O [Pγ_ox] (Ac-KYTGKCTKSKNECK-NH2; disulfide 6-13),MIC,C. albicans [3],40 µM
"TNGKKYKKKEYCCK [Pγ^var_scr, scrambled peptide analog of Pγ^var]",antifungal activity of scrambled peptide analog compared with original peptide,C. albicans [3],same antifungal activity
"TCKKNKKKKYGKTC [Pγ^opt_scr, scrambled peptide analog of Pγ^opt]",antifungal activity of scrambled peptide analog compared with original peptide,C. albicans [3],same antifungal activity

# Reference: paper PMC6062912, “The Evolutionary Conserved γ-Core Motif Influences the Anti-Candida Activity of the Penicillium chrysogenum Antifungal Protein PAF” (Frontiers in Microbiology, 2018)
